Consider nine compounds from article PMC11188199, “Development and validation of a generic methyltransferase enzymatic assay based on an SAH riboswitch” (SLAS discovery : advancing life sciences R & D, 2024).

Series [1] addresses T1, nsp14 (Severe acute respiratory syndrome coronavirus 2, UniProt P0DTD1).
The subject of series [2] is PRMT5. Also on record: method as in PMID 25915199. Particulars: read-out: IC50 (published value); cited from earlier work.
Series [3] addresses PRMT5. Set-up: method as in PMID 34583982. Particulars: RapidFire MS SAH detection; read-out: kiApp; cited from earlier work.
A further series has as its target SAH riboswitches. Set-up: method as in PMID 18374645. Particulars: native SAH riboswitch; cited from earlier work.
For another series, the system named is Dar-1 split aptamer. Description: Split aptamer SAH assay with TR-FRET readout (AptaFluor), equilibrium binding. The following applies: for EC50: n = 3, plates read at 3 hr. Also on record: species or system D. aromatica.
The test system of series [4] is split Dar-1 riboswitch (Dar1 P1/P2). Description: Split aptamer SAH assay with FP readout. It counts as binding, D. aromatica. An excerpt:
Based on a literature review and preliminary testing, an SAH riboswitch from D. aromatica (Dar-1) was chosen for development of a split aptamer-based assay. […] We tested these configurations with a far red fluor on the shorter P2 element, allowing FP-based detection (Fig. 1A). […] Generally, a shift of at least 100 mP @ ≤ 10 % substrate conversion is desirable for HTS. It is likely that the FP signal is limited by the relatively modest difference in size between the free P2 RNA and the liganded P1–P2 complex. In this regard, attachment of one half of a split DNA aptamer to a silver nanoparticle produced a lactoferrin sensor with a signal greater than 100 mP [32]; to our knowledge, this is the only other example of a split aptamer-based assay with an FP readout. Attempts to use a similar approach by attaching Streptavidin to the P1 oligomer were not successful (data not shown).
Fig. 1. Split aptamer SAH assay with FP readout. A. SAH dependent assembly of split aptamer (Dar1 P1/P2) causes increase in polarization of a fluor attached to the P2 element. B. SAH titration, showing concentration dependence and stability of signal. C. Comparison of response to SAH, SAM and ATP. D. Standard curve mimicking enzymatic conversion of 200 nM SAM to SAH. E. Titration of PRMT3 in the presence of 500 nM SAM and Histone H4 peptide substrate. […]

The test system of the next series is METTL3/METTL14. Particulars: cited from earlier work.
Series [5] concerns the target T1, nsp14. Particulars: read-out: SAM Km; cited from earlier work.
For series [6], the system named is C[S+](CC[C@H](N)C(=O)[O-])C[C@H]1O[C@@H](n2cnc3c(N)ncnc32)[C@H](O)[C@@H]1O. Put plainly: purified protein, by the assay type. The following applies: other: data not shown.

Regarding `CC1(C)C(=O)N=C2C1=C(O)C(=O)c1ccccc12` [BVT-948], the “inhibition of nsp14 enzymatic activity in dose response mode” value against nsp14 [1] is “dose-dependent response”. For `O=C(NC[C@H](O)CN1CCc2ccccc2C1)c1ccnc(NC2CCC2)c1` [GSK591], the IC50 in the series with PRMT5 [2] was 22 nM. Consider `Nc1nc2cc(CC[C@H]3C[C@@H](n4ccc5c(N)ncnc54)[C@H](O)[C@@H]3O)ccc2cc1Br` [JNJ64619178], for which, at PRMT5 [3], the Ki is 0.772 nM. Take `O=C1C(Cl)=C(NCCN2CCOCC2)C(=O)c2ncccc21` [NSC-663284]: the “inhibition of nsp14 enzymatic activity in dose response mode” value against nsp14 [1] is given as “dose-dependent response”.

On to `Nc1ncnc2c1ncn2[C@@H]1O[C@H](CSCC[C@H](N)C(=O)O)[C@@H](O)[C@H]1O` [SAH, S-adenosylhomocysteine], for which the Kd was 20 nM on SAH riboswitches and 22 nM in series [4] (split aptamer construct). For the same compound, in the series on Dar-1 split aptamer (highly purified preparation of SAM), the “observed selectivity (SAH vs SAM)” value is “more than 1000 fold”. The same compound registered an EC50 on Dar-1 split aptamer of 0.02 µM. Moreover, the “selectivity vs. SAM” value in series [4] is listed as “greater than 200 fold”. Take `C[S+](CC[C@H](N)C(=O)[O-])C[C@H]1O[C@@H](n2cnc3c(N)ncnc32)[C@H](O)[C@@H]1O` (stereo partly shown) [SAM, S-adenosylmethionine]: the “affinity fold lower than for SAH” value in the series with SAH riboswitches is “at least 1000 fold”. Besides, the Michaelis constant (Km) is about 200 nM with METTL3/METTL14 (ssRNA substrate similar to the 28mer, read-out: SAM Km) and 257 nM at nsp14 [5]. The compound also had a concentration for a half-maximal effect (EC50) at Dar-1 split aptamer of 23 µM.

Turning to `CNc1cc(N2CCC3(CC2)CN(c2cc(F)c(CN4CCC(C)(C)CC4)cc2F)CC(=O)N3)ncn1` [UZH2, reference compound], the IC50 in the series with METTL3/METTL14 (read-out: IC50 (published value)) is 5 nM. Turning to `Nc1ncnc2c1ncn2[C@@H]1O[C@H](CO)[C@@H](O)[C@H]1O` [adenosine], on Dar-1 split aptamer, the EC50 is 108 µM. “nsp14 (Severe acute respiratory syndrome coronavirus 2)”: in [6], the Km is reported as 60 nM.

As usually defined, the IC50 is the midpoint of a concentration-inhibition curve. Broadly, the Kd is the concentration at which binding is half-saturated. One may read the EC50 as the concentration that produces a half-maximal response. Read a low EC50 as an effect from little substance. As usually defined, the Km is the concentration of substrate that gives half-maximal velocity.
